Values quoted from earlier work, collected in patent publication US10194658B2, “High concentration low VOC liquid gibberellin” (Stoller Enterprises, Inc., priority 2015, dated 2019).

Conditions: at 20° C.

CC(O)CO (stereo not shown) [propylene glycol, propane-1,2-diol]
vapor pressure: 0.08 mm Hg
